Assay results taken from ChEMBL document CHEMBL1201862, “PubChem BioAssay data set” (2004).
Calls of active or inactive are those of the source.

How the values were obtained:
[1] = molecular target: T1, Tyrosine-protein phosphatase non-receptor type 22 (Homo sapiens, UniProt Q9Y2R2); assay type: functional
T1 sequence (Q9Y2R2 whole entry): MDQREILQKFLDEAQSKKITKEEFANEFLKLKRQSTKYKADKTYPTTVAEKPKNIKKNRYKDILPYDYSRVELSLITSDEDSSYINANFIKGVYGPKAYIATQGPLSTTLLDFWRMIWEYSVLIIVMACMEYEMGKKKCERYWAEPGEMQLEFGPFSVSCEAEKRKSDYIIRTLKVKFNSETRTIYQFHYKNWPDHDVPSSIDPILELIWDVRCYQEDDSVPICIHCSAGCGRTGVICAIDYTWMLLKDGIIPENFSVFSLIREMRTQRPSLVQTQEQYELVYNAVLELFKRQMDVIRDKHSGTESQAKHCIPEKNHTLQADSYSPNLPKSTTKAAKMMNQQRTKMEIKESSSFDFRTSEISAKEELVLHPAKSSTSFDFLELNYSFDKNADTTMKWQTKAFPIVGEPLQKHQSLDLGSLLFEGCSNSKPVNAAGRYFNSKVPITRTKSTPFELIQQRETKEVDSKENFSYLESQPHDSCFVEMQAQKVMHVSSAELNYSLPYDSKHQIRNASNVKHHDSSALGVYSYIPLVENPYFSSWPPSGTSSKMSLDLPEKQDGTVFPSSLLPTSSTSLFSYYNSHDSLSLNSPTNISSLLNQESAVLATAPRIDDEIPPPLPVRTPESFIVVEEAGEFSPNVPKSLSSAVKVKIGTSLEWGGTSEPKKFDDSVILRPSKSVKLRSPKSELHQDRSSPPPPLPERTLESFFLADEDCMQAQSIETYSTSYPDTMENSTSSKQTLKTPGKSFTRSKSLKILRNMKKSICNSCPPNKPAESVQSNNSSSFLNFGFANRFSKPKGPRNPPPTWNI

[2] = molecular target: T2, Tyrosine-protein phosphatase non-receptor type 7 (Homo sapiens, UniProt P35236); assay type: functional
T2 sequence (P35236 whole entry): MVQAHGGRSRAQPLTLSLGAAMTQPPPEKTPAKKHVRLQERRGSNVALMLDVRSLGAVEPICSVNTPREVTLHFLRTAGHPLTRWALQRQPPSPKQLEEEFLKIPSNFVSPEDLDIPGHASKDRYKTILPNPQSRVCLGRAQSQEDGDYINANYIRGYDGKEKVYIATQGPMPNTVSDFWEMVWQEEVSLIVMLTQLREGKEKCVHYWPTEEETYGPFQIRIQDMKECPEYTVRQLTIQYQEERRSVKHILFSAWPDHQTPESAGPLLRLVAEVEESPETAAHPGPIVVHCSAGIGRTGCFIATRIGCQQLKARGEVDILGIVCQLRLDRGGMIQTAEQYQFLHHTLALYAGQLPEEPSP

[3] = molecular target: T1, Tyrosine-protein phosphatase non-receptor type 22; assay type: functional; remark: listed apart in the source
[4] = molecular target: T3, Short transient receptor potential channel 4 (Mus musculus, UniProt Q9QUQ5); experiment: block of DAMGO-driven TRPC4 calcium entry – cell-based, HEK293 TRPC4/mu-opioid, Fluo-4 calcium, dose response (AID 434942); assay type: functional;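 also: potency of inhibitors blocking the TRPC4 calcium response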
T3 sequence (Q9QUQ5 whole entry): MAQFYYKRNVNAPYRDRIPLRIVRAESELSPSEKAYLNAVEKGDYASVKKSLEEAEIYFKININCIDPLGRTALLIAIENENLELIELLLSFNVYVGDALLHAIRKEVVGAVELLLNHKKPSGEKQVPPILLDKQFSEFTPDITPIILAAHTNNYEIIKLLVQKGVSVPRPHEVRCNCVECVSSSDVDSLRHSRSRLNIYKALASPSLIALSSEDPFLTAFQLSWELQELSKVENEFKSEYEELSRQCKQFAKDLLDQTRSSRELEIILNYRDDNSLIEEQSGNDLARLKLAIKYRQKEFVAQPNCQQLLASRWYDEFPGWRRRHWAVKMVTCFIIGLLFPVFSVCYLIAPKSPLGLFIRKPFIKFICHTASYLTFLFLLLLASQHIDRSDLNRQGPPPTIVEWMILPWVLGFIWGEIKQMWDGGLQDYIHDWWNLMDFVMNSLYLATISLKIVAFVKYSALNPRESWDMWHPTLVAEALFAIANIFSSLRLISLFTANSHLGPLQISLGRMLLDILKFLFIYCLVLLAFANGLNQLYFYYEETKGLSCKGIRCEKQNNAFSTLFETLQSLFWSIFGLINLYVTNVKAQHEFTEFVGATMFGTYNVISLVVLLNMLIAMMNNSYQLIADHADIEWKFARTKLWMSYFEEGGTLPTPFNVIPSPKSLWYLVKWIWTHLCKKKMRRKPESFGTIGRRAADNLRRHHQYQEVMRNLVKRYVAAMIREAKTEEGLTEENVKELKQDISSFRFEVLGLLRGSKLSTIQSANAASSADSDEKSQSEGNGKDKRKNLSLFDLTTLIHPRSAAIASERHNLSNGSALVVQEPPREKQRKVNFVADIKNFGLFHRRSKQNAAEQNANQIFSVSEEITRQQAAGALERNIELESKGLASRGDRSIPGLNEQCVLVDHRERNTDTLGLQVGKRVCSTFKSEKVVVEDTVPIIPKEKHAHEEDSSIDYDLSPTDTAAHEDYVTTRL

[5] = Vero E6 cell cytotoxicity, dose response, cytotoxicity control for non-replicating M. tuberculosis project, secondary assay (AID 492998); assay type: functional, VeroE6; conditions: Vero C1008
[6] = HepG2 cell cytotoxicity, dose response, cytotoxicity control for non-replicating M. tuberculosis project (AID 489018); assay type: functional; conditions: Mycobacterium tuberculosis
[7] = THP-1 cell cytotoxicity, dose response, cytotoxicity control for non-replicating M. tuberculosis project (AID 489025); assay type: functional
cells = assay type: functional
[8] = non-specific 3'UTR reporter inhibition in Clone20-Shn3RL – cell-based, Renilla luciferase, cherry-picked, counter-screen for Shn3 inhibitor project, dose response (AID 624133); assay type: functional
[9] = Luminescence Cell-Based Dose Retest to Confirm Inhibitors of Cancer Stem Cells. [Related pubchem assays (depositor defined):AID2717, AID2721]; assay type: functional; conditions: Homo sapiens
[10] = loss of viability in HepG2 cells – cell-based, CellTiter-Glo, cherry-picked, cytotoxicity control for Shn3 inhibitor project, dose response (AID 624134); assay type: functional
[11] = reduction of Shn3 3'UTR-driven luciferase in osteoblasts – cell-based, Clone20 osteoblasts, firefly luciferase, cherry-picked, dose response (AID 624132); assay type: functional;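 also: firefly luciferase luminescence from reporter carrying the Shn3 3'UTR in osteoblasts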
Tumor necrosis factor = Tumor necrosis factor (Homo sapiens, UniProt P01375); experiment: analog potency on TNFa NF-kB signaling – cell-based, revised, SAR follow-up (AID 2337); assay type: functional
HEK293 = experiment: cells; conditions: Homo sapiens;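 also: cells exposed to compound for 14 hours overnight before viability readout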
[12] = molecular target: Voltage-dependent T-type calcium channel subunit alpha-1H (Homo sapiens, UniProt O95180); assay type: functional;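 also: channel activity triggered by adding a high calcium stimulation buffer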
Cytochrome P450 2C9 = Cytochrome P450 2C9 (Homo sapiens, UniProt P11712)
Cytochrome P450 1A2 = molecular target: T4, Cytochrome P450 1A2 (Homo sapiens, UniProt P05177);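 also: PubChem cytochrome P450 panel assay, CYP1A2 panel member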
T4 sequence (P05177 whole entry): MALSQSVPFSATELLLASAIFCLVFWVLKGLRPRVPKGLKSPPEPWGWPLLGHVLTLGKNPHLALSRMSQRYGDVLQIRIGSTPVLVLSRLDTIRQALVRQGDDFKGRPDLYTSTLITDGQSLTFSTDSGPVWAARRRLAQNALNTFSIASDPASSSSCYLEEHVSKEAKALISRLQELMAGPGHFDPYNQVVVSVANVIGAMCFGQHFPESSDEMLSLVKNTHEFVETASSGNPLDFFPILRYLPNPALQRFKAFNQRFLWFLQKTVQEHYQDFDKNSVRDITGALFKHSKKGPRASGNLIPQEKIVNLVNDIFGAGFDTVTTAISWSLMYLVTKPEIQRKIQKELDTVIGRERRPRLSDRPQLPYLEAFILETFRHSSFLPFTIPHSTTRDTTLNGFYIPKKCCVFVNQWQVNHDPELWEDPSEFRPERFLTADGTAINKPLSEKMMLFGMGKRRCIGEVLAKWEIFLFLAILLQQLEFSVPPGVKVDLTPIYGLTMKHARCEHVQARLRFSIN

[13] = molecular target: T5, Carboxy-terminal domain RNA polymerase II polypeptide A small phosphatase 1 (Homo sapiens, UniProt Q9GZU7); experiment: CTDSP1 inhibitors, concentration-response, biochemical, absorbance readout, ultra-high-throughput screen actives (AID 540297); assay type: functional
T5 sequence (Q9GZU7 whole entry): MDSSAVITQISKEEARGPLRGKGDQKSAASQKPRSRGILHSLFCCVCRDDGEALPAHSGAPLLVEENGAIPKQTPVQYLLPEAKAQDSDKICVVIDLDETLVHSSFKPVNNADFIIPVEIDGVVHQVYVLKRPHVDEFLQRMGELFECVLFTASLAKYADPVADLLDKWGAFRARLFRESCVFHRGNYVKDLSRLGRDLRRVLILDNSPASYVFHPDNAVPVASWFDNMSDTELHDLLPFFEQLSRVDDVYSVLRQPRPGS

[14] = molecular target: DNA dC->dU-editing enzyme APOBEC-3A (Homo sapiens, UniProt P31941); experiment: Dose Response confirmation of small molecule APOBEC3A DNA Deaminase Inhibitors via a fluorescence-based single-stranded DNA deaminase assay. [Related pubchem assays (depositor defined):AID493011, AID493024]; assay type: functional
[15] = molecular target: DNA dC->dU-editing enzyme APOBEC-3G (Homo sapiens, UniProt Q9HC16); assay type: functional;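 also: Dose-response counterscreen measuring inhibition of APOBEC3G DNA deaminase activity, run while confirming APOBEC3A inhibitors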
[16] = A549 cell cytotoxicity, dose response, cytotoxicity control, plate reader, cherry-pick, antagonist series (AID 743412); assay type: functional, cell-based
[17] = blockade of melanocortin 4 receptor signaling – cell-based, plate reader, cherry pick, counter-screen for LGR2 antagonist project, dose response (AID 743444); assay type: functional;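 also: transfected HEK 293 cells stimulated with alpha-MSH peptide; potency of inhibitors of the alpha-MSH evoked signal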
[18] = Trypanosoma cruzi growth suppression in host cells – NIH3T3 host cells, beta-gal luminescence, confirmation (AID 2044); assay type: functional, cell-based;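 also: intracellular parasites grown in NIH/3T3 mouse fibroblasts as host cells; luminescent beta-galactosidase reporter signal from transgenic T. cruzi replicating inside host cells; inhibitors lower the luminescence signal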
[19] = blockers of bursicon-stimulated LGR2 cAMP reporter – cell-based, HEK293, CRE-luciferase reporter, cherry pick, set 2, dose response (AID 743343); assay type: functional;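 also: transfected cells were stimulated with diluted bursicon conditioned medium after compound addition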
[20] = NIH3T3 cell viability loss – ATP luminescence, mouse fibroblasts, counter-screen, dose response (AID 2010); assay type: functional, cell-based;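 also: cells exposed to compound for about 90 hours before reading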
[21] = viability loss in HEK293 cells – cell-based, plate reader, cherry-picked samples, cytotoxicity control, dose response (AID 743446); assay type: functional
[22] = toxicity toward HepG2 liver cells – cell-based, plate reader, cherry-pick, antagonist series, cytotoxicity control, dose response (AID 743416); assay type: functional

Sequence of Cytochrome P450 2C9 (P11712 whole entry): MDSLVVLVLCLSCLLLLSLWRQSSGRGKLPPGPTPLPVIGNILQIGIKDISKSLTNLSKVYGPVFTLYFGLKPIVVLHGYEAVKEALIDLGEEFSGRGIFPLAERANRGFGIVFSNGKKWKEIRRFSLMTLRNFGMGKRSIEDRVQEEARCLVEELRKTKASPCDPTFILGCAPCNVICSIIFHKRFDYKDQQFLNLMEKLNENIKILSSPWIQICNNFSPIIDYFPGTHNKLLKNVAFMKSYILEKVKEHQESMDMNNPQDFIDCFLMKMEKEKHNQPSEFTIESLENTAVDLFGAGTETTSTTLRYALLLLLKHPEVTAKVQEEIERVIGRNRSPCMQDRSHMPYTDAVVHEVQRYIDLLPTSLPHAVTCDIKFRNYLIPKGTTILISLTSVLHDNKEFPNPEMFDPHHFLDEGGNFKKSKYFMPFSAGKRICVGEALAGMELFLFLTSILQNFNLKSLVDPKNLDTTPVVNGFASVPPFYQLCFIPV
Sequence of Voltage-dependent T-type calcium channel subunit alpha-1H (O95180 whole entry): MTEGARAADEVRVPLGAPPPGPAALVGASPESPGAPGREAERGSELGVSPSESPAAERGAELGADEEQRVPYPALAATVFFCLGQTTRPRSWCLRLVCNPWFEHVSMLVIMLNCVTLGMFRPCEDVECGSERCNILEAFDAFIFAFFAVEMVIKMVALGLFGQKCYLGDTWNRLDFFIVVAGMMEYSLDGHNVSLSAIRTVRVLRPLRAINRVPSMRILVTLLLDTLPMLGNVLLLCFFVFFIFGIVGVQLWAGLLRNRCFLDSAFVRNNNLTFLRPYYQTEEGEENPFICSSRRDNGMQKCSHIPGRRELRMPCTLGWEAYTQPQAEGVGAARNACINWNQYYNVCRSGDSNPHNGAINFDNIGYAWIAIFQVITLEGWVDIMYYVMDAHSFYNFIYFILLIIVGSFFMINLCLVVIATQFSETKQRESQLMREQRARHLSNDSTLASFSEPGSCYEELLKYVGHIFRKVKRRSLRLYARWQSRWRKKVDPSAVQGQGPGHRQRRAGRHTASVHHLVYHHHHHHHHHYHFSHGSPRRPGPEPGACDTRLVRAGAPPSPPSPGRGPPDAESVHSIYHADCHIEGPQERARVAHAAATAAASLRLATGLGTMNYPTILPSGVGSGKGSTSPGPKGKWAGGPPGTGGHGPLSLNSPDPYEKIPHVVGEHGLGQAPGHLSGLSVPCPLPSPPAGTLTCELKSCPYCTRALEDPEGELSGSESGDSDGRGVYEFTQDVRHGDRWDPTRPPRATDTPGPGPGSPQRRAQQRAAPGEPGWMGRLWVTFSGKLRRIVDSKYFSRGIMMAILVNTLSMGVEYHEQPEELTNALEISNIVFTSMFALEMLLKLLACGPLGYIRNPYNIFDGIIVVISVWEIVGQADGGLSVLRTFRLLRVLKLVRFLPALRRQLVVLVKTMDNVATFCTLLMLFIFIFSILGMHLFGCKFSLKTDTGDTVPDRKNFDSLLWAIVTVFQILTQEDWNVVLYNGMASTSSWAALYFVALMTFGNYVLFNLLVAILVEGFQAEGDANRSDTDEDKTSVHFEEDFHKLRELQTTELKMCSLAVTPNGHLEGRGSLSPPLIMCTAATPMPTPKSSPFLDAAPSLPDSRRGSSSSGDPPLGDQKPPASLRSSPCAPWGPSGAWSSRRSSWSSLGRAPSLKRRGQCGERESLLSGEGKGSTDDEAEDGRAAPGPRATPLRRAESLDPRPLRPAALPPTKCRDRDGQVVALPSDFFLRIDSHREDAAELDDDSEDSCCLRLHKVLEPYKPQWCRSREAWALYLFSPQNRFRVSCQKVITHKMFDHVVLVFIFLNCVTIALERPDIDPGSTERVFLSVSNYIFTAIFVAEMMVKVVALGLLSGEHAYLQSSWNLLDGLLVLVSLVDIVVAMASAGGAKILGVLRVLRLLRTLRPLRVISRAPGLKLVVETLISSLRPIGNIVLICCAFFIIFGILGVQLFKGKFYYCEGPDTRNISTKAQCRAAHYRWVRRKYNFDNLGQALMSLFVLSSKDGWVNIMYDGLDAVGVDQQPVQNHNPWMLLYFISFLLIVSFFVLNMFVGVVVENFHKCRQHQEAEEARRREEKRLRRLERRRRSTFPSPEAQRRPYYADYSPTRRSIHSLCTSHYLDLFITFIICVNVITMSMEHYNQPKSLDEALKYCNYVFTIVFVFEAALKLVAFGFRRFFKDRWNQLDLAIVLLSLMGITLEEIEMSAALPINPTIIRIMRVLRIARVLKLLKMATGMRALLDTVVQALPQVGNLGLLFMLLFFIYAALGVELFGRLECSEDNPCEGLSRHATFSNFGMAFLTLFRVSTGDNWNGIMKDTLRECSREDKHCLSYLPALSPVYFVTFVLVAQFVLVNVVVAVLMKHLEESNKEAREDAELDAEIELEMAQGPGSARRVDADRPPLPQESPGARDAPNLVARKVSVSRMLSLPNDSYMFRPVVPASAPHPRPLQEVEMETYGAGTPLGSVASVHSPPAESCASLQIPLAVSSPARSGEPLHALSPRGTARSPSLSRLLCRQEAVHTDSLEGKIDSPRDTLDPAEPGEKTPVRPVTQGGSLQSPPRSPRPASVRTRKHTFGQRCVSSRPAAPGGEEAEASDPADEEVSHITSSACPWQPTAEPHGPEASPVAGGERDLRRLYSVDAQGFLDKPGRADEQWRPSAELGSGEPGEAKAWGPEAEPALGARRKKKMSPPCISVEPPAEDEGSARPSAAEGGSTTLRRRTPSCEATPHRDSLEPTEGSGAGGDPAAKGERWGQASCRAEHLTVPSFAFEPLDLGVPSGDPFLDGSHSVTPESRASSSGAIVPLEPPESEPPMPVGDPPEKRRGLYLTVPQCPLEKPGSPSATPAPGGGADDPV
Sequence of DNA dC->dU-editing enzyme APOBEC-3A (P31941 whole entry): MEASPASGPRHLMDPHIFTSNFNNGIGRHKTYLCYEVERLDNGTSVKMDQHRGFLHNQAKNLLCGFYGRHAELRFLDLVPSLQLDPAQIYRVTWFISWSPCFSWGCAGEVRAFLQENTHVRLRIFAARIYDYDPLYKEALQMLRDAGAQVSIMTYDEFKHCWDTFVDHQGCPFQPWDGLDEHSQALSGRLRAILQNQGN
Sequence of DNA dC->dU-editing enzyme APOBEC-3G (Q9HC16 whole entry): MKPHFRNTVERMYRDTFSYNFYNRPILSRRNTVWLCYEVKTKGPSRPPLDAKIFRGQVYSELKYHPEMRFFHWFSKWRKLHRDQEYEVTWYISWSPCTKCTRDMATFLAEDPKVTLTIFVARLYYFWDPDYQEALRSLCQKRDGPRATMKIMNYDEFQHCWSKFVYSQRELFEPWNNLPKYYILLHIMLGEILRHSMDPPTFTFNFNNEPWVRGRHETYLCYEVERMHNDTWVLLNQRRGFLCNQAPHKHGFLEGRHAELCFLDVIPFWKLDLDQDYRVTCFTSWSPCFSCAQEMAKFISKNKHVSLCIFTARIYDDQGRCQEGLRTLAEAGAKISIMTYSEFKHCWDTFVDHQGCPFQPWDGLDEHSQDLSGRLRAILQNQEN
Sequence of Tumor necrosis factor (P01375 whole entry): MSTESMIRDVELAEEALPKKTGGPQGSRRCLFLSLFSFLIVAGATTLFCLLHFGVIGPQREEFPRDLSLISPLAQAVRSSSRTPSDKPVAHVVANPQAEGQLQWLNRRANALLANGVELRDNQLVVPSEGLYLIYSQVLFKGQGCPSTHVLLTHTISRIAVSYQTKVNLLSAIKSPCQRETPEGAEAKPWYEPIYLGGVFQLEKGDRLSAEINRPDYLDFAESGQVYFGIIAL

With `CN(C)S(=O)(=O)N1CCN(S(=O)(=O)c2ccc3ccccc3c2)CC1` the IC50 [1] was > 79.4 µM (inactive), the IC50 [2] was > 79.4 µM (inactive) and the IC50 [3] was > 79.4 µM (inactive).
For `Cc1ccc(NC(=O)COC(=O)c2cc(-c3cccs3)nn2-c2ccccc2)cc1[N+](=O)[O-]`, the IC50 [1] was > 79.4 µM (inactive), the IC50 [2] was > 79.4 µM (inactive) and the IC50 [3] was > 79.4 µM (inactive).
In the case of `CCOc1ccc2[nH]c3c(N4CCN(c5ccccn5)CC4)ncnc3c2c1`, the EC50 [4] is reported as 1.19 µM (active).
With `CC(=O)N1CCN(c2ccccc2NC(=O)c2ccc3ccccc3c2)CC1` the EC50 [4] was 1.5 µM (active).
In the case of `COc1ccc(/C=C2\Sc3ccc(C(=O)NCCN4CCCCCC4)cc3N(C)C2=O)cc1`, the CC50 [5] is reported as > 20 µM (active), the CC50 [6] is reported as 14.3 µM (active) and the CC50 [7] is reported as 17.9 µM (active). For the same molecule, the IC50 (cells) was 19 µM (active).
In the case of `CCOC(=O)C1(CCOc2ccccc2)CCN(Cc2cccn2-c2ncccn2)CC1`, the EC50 [4] is reported as 1.88 µM (active).
For `CC(NCc1ccc(OCc2ccc(Cl)cc2)cc1)C(O)c1ccccc1` (stereo not given), the AC50 [8] was 21.2 µM (active), the AC50 [9] was 3.57 µM (active) and the AC50 [10] was 14.6 µM (active). The CC50 [5] was 14.6 µM (active), the AC50 [11] was 10.9 µM (active) and the CC50 [6] was 15.5 µM (active). The CC50 [7] was 9.8 µM (active) and the IC50 (cells) was 13.3 µM (active).
For `CC(=O)N1c2ccc(S(=O)(=O)N3CCN(c4ccc([N+](=O)[O-])cc4)CC3)cc2CC1C` (stereo not given), the IC50 (Tumor necrosis factor) was 3.27 µM (active) and the IC50 (HEK293) was 14.3 µM (active).
With `c1ccc(-c2nc(NCc3ccco3)c3ccccc3n2)cc1` the EC50 [4] was 3.76 µM (active).
For `Cc1ccc(C)c(CN2C(=O)COc3ccc(C(=O)c4ccccc4C(=O)O)cc32)c1`, the IC50 [1] was > 79.4 µM (inactive), the IC50 [2] was > 79.4 µM (inactive) and the IC50 [3] was > 79.4 µM (inactive).
With `CCN(CC)c1ccc(/C=C/c2nc3ccccc3s2)cc1` the EC50 [12] was 6.85 µM (active) and the AC50 (Cytochrome P450 2C9) was “inconclusive”.
For `CCn1cc(Br)c(C(=O)NC(=S)Nc2ccc(C(=O)OC)cc2)n1`, the IC50 [1] was > 79.4 µM (inactive), the IC50 [2] was > 79.4 µM (inactive) and the IC50 [3] was > 79.4 µM (inactive).
With `O=C(CO)N/N=C/c1ccccc1F` the AC50 (Cytochrome P450 1A2) was 25.1 µM (inconclusive) and the AC50 (Cytochrome P450 2C9) was “inconclusive”.
For `C[N+]1(C2CCC3CCCC2C3O)CCCCC1` (stereo not given), the IC50 [13] was 6.61 µM (active), the IC50 [14] was 2.42 µM (active) and the IC50 [15] was 2.69 µM (active).
For `Cc1cc(C)cc(-n2nnnc2SCC(=O)Nc2nc(-c3ccc(Cl)cc3)cs2)c1`, the AC50 (Cytochrome P450 1A2) was 7.08 µM (inconclusive) and the AC50 (Cytochrome P450 2C9) was “inconclusive”.
In the case of `Cc1cc([N+](=O)[O-])ccc1NC(=O)Nc1ccc(F)cc1F`, the CC50 [5] is reported as > 20 µM (active), the AC50 [16] is reported as 19.6 µM (active) and the AC50 [17] is reported as 30.1 µM (active). The EC50 [18] was 4.36 µM (active), the AC50 [19] was 30.9 µM (active) and the EC50 [20] was > 60 µM (not active). For the same molecule, the AC50 [21] was 22.8 µM (active), the AC50 [22] was 18.8 µM (active) and the CC50 [6] was > 20 µM (active). The CC50 [7] was 20.3 µM (active) and the IC50 (cells) was 46.7 µM (active).
